# Laboratory results: patent US20170190671A1, “BIS(ARYL)CATECHOL DERIVATIVES AS HERBICIDES” (E I DU PONT DE NEMOURS AND COMPANY, priority 2014, published 2017)
# Tests used:
# Type in all cases: in vivo
# [1] = test system: galium (catchweed bedstraw, Galium aparine); assay: Test A postemergence; conditions: 0 to 100 scale
# From the text: (§1) Seeds of plant species selected from barnyardgrass (Echinochloa crus-galli), kochia (Kochia scoparia), ragweed (common ragweed, Ambrosia elatior), Italian ryegrass (Lolium multiflorum), large (Lg) crabgrass (Digitaria sanguinalis), giant foxtail (Setaria faberii), morningglory (Ipomoea spp.), pigweed (Amaranthus retroflexus), velvetleaf (Abutilon theophrasti), wheat (Triticum aestivum), and corn (Zea mays) were planted into a blend of loam soil and sand and treated preemergence with a directed soil spray using test chemicals formulated in a non-phytotoxic solvent mixture which included a surfactant.
# (§2) At the same time, plants selected from these crop and weed species and also blackgrass (Alopecurus myosuroides), and galium (catchweed bedstraw, Galium aparine) were planted in pots containing the same blend of loam soil and sand and treated with postemergence applications of test chemicals formulated in the same manner. Plants ranged in height from 2 to 10 cm and were in the one- to two-leaf stage for the postemergence treatment. Treated plants and untreated controls were maintained in a greenhouse for approximately 10 days, after which time all treated plants were compared to untreated controls and visually evaluated for injury. Plant response ratings, summarized in Table A, are based on a 0 to 100 scale where 0 is no effect and 100 is complete control. A dash (-) response means no test result.
# [2] = test system: Italian ryegrass (Lolium multiflorum); assay: Test A postemergence; conditions: 0 to 100 scale
# From the text: as §1, §2
# [3] = test system: wheat (Triticum aestivum); assay: Test A postemergence; conditions: 0 to 100 scale
# From the text: as §1, §2
# [4] = test system: ragweed (common ragweed, Ambrosia elatior); assay: Test A postemergence; conditions: 0 to 100 scale
# From the text: as §1, §2
# [5] = test system: barnyardgrass (Echinochloa crus-galli); assay: Test A postemergence; conditions: 0 to 100 scale
# From the text: as §1, §2
# corn (Zea mays) = assay: Test A postemergence; conditions: 0 to 100 scale
# From the text: as §1, §2
# [6] = test system: giant foxtail (Setaria faberii); assay: Test A postemergence; conditions: 0 to 100 scale
# From the text: as §1, §2
# [7] = test system: pigweed (Amaranthus retroflexus); assay: Test A postemergence; conditions: 0 to 100 scale
# From the text: as §1, §2
# [8] = test system: blackgrass (Alopecurus myosuroides); assay: Test A postemergence; conditions: 0 to 100 scale
# From the text: as §1, §2
# kochia (Kochia scoparia) [9] = assay: Test A postemergence; conditions: 0 to 100 scale
# From the text: as §1, §2
# [10] = test system: sedge, umbrella (small-flower umbrella sedge, Cyperus difformis); assay: Test B flooded paddy; conditions: 250 g ai/ha, Flood, 13 to 15 days, scale 0 (no effect) to 100 (complete control)
# From the text: (§3) At time of treatment, test pots were flooded to 3 cm above the soil surface, treated by application of test compounds directly to the paddy water, and then maintained at that water depth for the duration of the test. Treated plants and controls were maintained in a greenhouse for 13 to 15 days, after which time all species were compared to controls and visually evaluated. […] A dash (-) response means no test result.
# rice (Oryza sativa) = assay: Test B flooded paddy; conditions: 250 g ai/ha, Flood, 13 to 15 days, scale 0 (no effect) to 100 (complete control)
# From the text: as §3
# [11] = test system: ducksalad (Heteranthera limosa); assay: Test B flooded paddy; conditions: 250 g ai/ha, Flood, 13 to 15 days, scale 0 (no effect) to 100 (complete control)
# From the text: as §3
# [12] = test system: barnyardgrass (Echinochloa crus-galli); assay: Test B flooded paddy; conditions: 250 g ai/ha, Flood, 13 to 15 days, scale 0 (no effect) to 100 (complete control)
# From the text: as §3
# [13] = test system: Italian ryegrass (Lolium multiflorum); assay: Test A preemergence; conditions: for Plant response rating, Ryegrass, Italian: 0 to 100 scale
# From the text: as §1, §2
# [14] = test system: ragweed (common ragweed, Ambrosia elatior); assay: Test A preemergence; conditions: for Plant response rating, Ragweed: 0 to 100 scale
# From the text: as §1, §2
# [15] = test system: barnyardgrass (Echinochloa crus-galli); assay: Test A preemergence; conditions: for Plant response rating, Barnyardgrass: 0 to 100 scale
# From the text: as §1, §2
# [16] = test system: giant foxtail (Setaria faberii); assay: Test A preemergence; conditions: for Plant response rating, Foxtail, Giant: 0 to 100 scale
# From the text: as §1, §2
# [17] = test system: pigweed (Amaranthus retroflexus); assay: Test A preemergence; conditions: for Plant response rating, Pigweed: 0 to 100 scale
# From the text: as §1, §2
# kochia (Kochia scoparia) [18] = assay: Test A preemergence; conditions: for Plant response rating, Kochia: 0 to 100 scale
# From the text: as §1, §2
# [19] = 31 g ai/ha, 0 to 100 scale (0 no effect, 100 complete control)
Structure (SMILES),"Plant response rating, Galium ([1]; 125 g ai/ha)","Plant response rating, Ryegrass, Italian ([2]; 125 g ai/ha)","Plant response rating, Wheat ([3]; 125 g ai/ha)","Plant response rating, Ragweed ([4]; 125 g ai/ha)","Plant response rating, Barnyardgrass ([5]; 125 g ai/ha)","Plant response rating, Corn (corn (Zea mays); 125 g ai/ha)","Plant response rating, Foxtail, Giant ([6]; 125 g ai/ha)","Plant response rating, Pigweed ([7]; 125 g ai/ha)","Plant response rating, Blackgrass ([8]; 125 g ai/ha)","Plant response rating, Kochia (kochia (Kochia scoparia) [9]; 125 g ai/ha)","Plant response rating, Sedge, Umbrella [10]","Plant response rating, Rice (rice (Oryza sativa))","Plant response rating, Ducksalad [11]","Plant response rating, Barnyardgrass [12]","Plant response rating, Ryegrass, Italian ([13]; 125 g ai/ha)","Plant response rating, Ragweed ([14]; 125 g ai/ha)","Plant response rating, Barnyardgrass ([15]; 125 g ai/ha)","Plant response rating, Foxtail, Giant ([16]; 125 g ai/ha)","Plant response rating, Pigweed ([17]; 125 g ai/ha)","Plant response rating, Kochia (kochia (Kochia scoparia) [18]; 125 g ai/ha)",further results
N#Cc1cccc(Oc2ncc(Cl)cn2)c1Oc1ccc(C(F)(F)F)nc1 [Compound 13],0,0,0,0,0,0,0,10,0,0,0,0,0,0,0,0,0,0,0,0,"Plant response rating, Galium ([1]; 500 g ai/ha): 0; Plant response rating, Ryegrass, Italian ([2]; 500 g ai/ha): 0; Plant response rating, Wheat ([3]; 500 g ai/ha): 0; Plant response rating, Ragweed ([4]; 500 g ai/ha): 0; Plant response rating, Barnyardgrass ([5]; 500 g ai/ha): 0; Plant response rating, Corn (corn (Zea mays); 500 g ai/ha): 0; Plant response rating, Foxtail, Giant ([6]; 500 g ai/ha): 0; Plant response rating, Pigweed ([7]; 500 g ai/ha): 40; Plant response rating, Blackgrass ([8]; 500 g ai/ha): 0; Plant response rating, Kochia (kochia (Kochia scoparia) [9]; 500 g ai/ha): 0; Plant response rating, Ryegrass, Italian ([13]; 500 g ai/ha): 0; Plant response rating, Ragweed ([14]; 500 g ai/ha): 0; Plant response rating, Barnyardgrass ([15]; 500 g ai/ha): 0; Plant response rating, Foxtail, Giant ([16]; 500 g ai/ha): 0; Plant response rating, Pigweed ([17]; 500 g ai/ha): 0; Plant response rating, Kochia (kochia (Kochia scoparia) [18]; 500 g ai/ha): 0"
N#Cc1cccc(Oc2ncc(Cl)cn2)c1Oc1ccc(C(F)(F)F)cn1 [Compound 14],50,0,0,0,0,0,20,50,30,0,0,15,30,0,0,0,0,0,80,0,"Plant response rating, Galium ([1]; 31 g ai/ha): 40; Plant response rating, Ryegrass, Italian ([2]; 31 g ai/ha): 0; Plant response rating, Wheat ([3]; 31 g ai/ha): 0; Plant response rating, Ragweed ([4]; 31 g ai/ha): 0; Plant response rating, Barnyardgrass ([5]; 31 g ai/ha): 0; Plant response rating, Corn (corn (Zea mays); 31 g ai/ha): 0; Plant response rating, Foxtail, Giant ([6]; 31 g ai/ha): 0; Plant response rating, Pigweed ([7]; 31 g ai/ha): 0; Plant response rating, Blackgrass ([8]; 31 g ai/ha): 0; Plant response rating, Kochia (kochia (Kochia scoparia) [9]; 31 g ai/ha): 0; Ryegrass, Italian plant response rating [13, 19]: 0; Ragweed plant response rating [14, 19]: 0; Barnyardgrass plant response rating [15, 19]: 0; Foxtail, Giant plant response rating [16, 19]: 0; Pigweed plant response rating [17, 19]: 40; Kochia plant response rating (kochia (Kochia scoparia) [18]; [19]): 0"
